From PubChem BioAssay AID1919010 (Molecular Pharmacology Branch, DTP, NCI, 2023)

Test system: Hs578T complex spheroid growth, percent test/control
Experiment: Anticancer human tumor Hs578T cell line growth inhibition [AhR];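 further: luminescent viability signal as a proxy for spheroid growth; spheroids exposed to agents for one week after three days of growth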
Details: for IC50: curve of first compound; for viability, T/C: stronger effect = lower value
From the text: Multicellular complex tumor spheroid response to aryl hydrocarbon receptor antagonists in combination with a variety of drugs and investigational agents in selected tumor cell lines
The current study was undertaken to assess response to aryl hydrocarbon receptor antagonists in combination with standard-of-care drugs and investigational agents in solid tumor complex spheroid models. Complex spheroids include a stromal component modeled by human endothelial cells (HUVEC) and fibroblasts modeled by human mesenchymal stem cells (MSCs). The concentration ranges selected for each drug and investigational agent were based upon clinically achievable concentrations if the clinical Cmax of the agent was known.
Compounds. The drugs and investigational agents: BAY 2416964 (NSC825713), GNF351 (NSC835774), CH-223191 (NSC835775), CPI-455 (NSC825282), aza-TdCyd (NSC777586), decitabine (NSC127716), belinostat (NSC758774), entinostat (NSC756642), pevonedistat (NSC761192), tazemetostat (NSC777109), talazoparib (NSC765396), olaparib (NSC753686), selinexor (NSC780203), nedisertib (M3814, NSC802822), bortezomib (NSC756655), venetoclax (NSC766270), doxorubicin (NSC123127), elimusertib (BAY189344, NSC800525), ceralasertib (AZD6738, NSC777638), TAK-243 (NSC785004), alisertib (NSC759677), etoposide (NSC141540), topotecan (NSC609699), eribulin (NSC707389), gemcitabine (NSC613327), carboplatin (NSC241240), cisplatin (NSC119875), and SN-38 (NSC673596) were obtained from the National Cancer Institute (NCI) Developmental Therapeutics Program Chemical Repository (32). The FDA-approved anticancer drug set is available from the Developmental Therapeutics Program at https://dtp.cancer.gov/organization/dscb/obtaining/available plates.htm. […] The stock solutions were prepared in dimethyl sulfoxide (DMSO, Sigma-Aldrich, St. Louis, MO, cat. D2650), except for the platinum compounds which were prepared in saline (Quality Biological, Gaithersburg, MD, cat. 114-055-101), at 800-fold the tested concentration and stored at -70 degrees C prior to their use. All drugs and investigational agents were tested over a range starting from a high concentration at or near the clinical Cmax and decreasing in half-log increments. If the clinical Cmax for an agent had not been determined, the highest concentration tested was 10 microM (Table 1).
Cell Culture. All cells were maintained in an incubator at 37 degrees C and 5% CO2 with 95% humidity. The PDC lines were cultured according to standard operating procedures established by the NCI PDMR (https://pdmr.cancer.gov). Briefly, all PDCs were thawed and cultured in Matrigel-coated flasks prepared with a working solution of 1X Ham's F-12 nutrient mix, without supplementation (Invitrogen, Waltham, MA, cat. 11765054), 100 U/mL penicillin-streptomycin (Invitrogen, cat. 15140122), and 2.5% Matrigel (Corning Inc., Corning, NY, cat. 354248) for the first three passages. All PDCs were cultured in complete DMEM/F-12 media containing advanced DMEM/F-12 (Invitrogen, cat. 12634028), 4.9% defined fetal bovine serum, heat inactivated (HyClone Laboratories Inc., Logan, UT, cat. SH30070.03HI), 389 ng/mL hydrocortisone (Sigma-Aldrich, cat. H4001), 9.7 ng/mL human EGF recombinant protein (Invitrogen, cat. PHG0313), 23.4 microg/mL adenine (Sigma-Aldrich, cat. A2786), 97.3 U/mL penicillin-streptomycin (Invitrogen, cat. 15140122), 1.9 mM L-glutamine (Invitrogen, cat. 25030081), and 9.7 microM Y-27632 dihydrochloride (Tocris Bioscience, Bristol, United Kingdom, cat. 1254). The PDCs were cultured in complete DMEM/F12 media without 10 microM Y-27632 dihydrochloride for at least two passages prior to the screen. The established cell lines NCI-H1341 and […] were cultured in DMEM/F-12, HEPES (Invitrogen, cat. 11330032), 5% defined fetal bovine serum (HyClone Laboratories Inc., cat. SH30070.03), ITS premix universal culture supplement [insulin (5 microg/mL), transferrin (5 microg/mL), and selenious acid (5 ng/mL)] […]

[1] = second compound 0.1 µM, first compound 0.0316 µM
[2] = second compound 0.1 µM, first compound 0.1 µM
[3] = second compound 0.1 µM, first compound 0.316 µM
[4] = second compound 0.1 µM, first compound 1 µM
[5] = second compound 0.1 µM, first compound 3.16 µM
[6] = second compound 0.1 µM, first compound 10 µM
[7] = second compound 0.316 µM, first compound 0.0316 µM
[8] = second compound 0.316 µM, first compound 0.1 µM
[9] = second compound 0.316 µM, first compound 0.316 µM
[10] = second compound 0.316 µM, first compound 1 µM
[11] = second compound 0.316 µM, first compound 3.16 µM
[12] = second compound 0.316 µM, first compound 10 µM
[13] = second compound 1 µM, first compound 0.0316 µM
[14] = second compound 1 µM, first compound 0.1 µM
[15] = second compound 1 µM, first compound 0.316 µM
[16] = second compound 1 µM, first compound 1 µM
[17] = second compound 1 µM, first compound 3.16 µM
[18] = second compound 1 µM, first compound 10 µM
[19] = second compound 3.16 µM, first compound 0.0316 µM
[20] = second compound 3.16 µM, first compound 0.1 µM
[21] = second compound 3.16 µM, first compound 0.316 µM
[22] = second compound 3.16 µM, first compound 1 µM
[23] = second compound 3.16 µM, first compound 3.16 µM
[24] = second compound 3.16 µM, first compound 10 µM
[25] = second compound 10 µM, first compound 0.0316 µM
[26] = second compound 10 µM, first compound 0.1 µM
[27] = second compound 10 µM, first compound 0.316 µM
[28] = second compound 10 µM, first compound 1 µM
[29] = second compound 10 µM, first compound 3.16 µM
[30] = second compound 10 µM, first compound 10 µM

Structure (SMILES)	IC50 (second compound 0.1 µM)	IC50 (second compound 0.316 µM)	IC50 (second compound 1 µM)	IC50 (second compound 3.16 µM)	IC50 (second compound 10 µM)	viability, T/C [1]	viability, T/C [2]	viability, T/C [3]	viability, T/C [4]	viability, T/C [5]	viability, T/C [6]	viability, T/C [7]	viability, T/C [8]	viability, T/C [9]	viability, T/C [13]	viability, T/C [14]	viability, T/C [19]	viability, T/C [20]	viability, T/C [25]	viability, T/C [26]	other results
CC1(C)CCC(CN2CCN(c3ccc(C(=O)NS(=O)(=O)c4ccc(NCC5CCOCC5)c([N+](=O)[O-])c4)c(Oc4cnc5[nH]ccc5c4)c3)CC2)=C(c2ccc(Cl)cc2)C1 + CC(CO)NC(=O)c1cc(-c2ccc(Cl)cc2)nn(-c2cnn(C)c2)c1=O	> 10 µM	> 10 µM	> 10 µM	> 10 µM	> 10 µM	109%	107%	107%	101%	106%	84.3%	110%	99.7%	110%	115%	122%	108%	111%	117%	96.9%	viability, T/C [10]: 91.2%; viability, T/C [11]: 93%; viability, T/C [12]: 96.3%; viability, T/C [15]: 114%; viability, T/C [16]: 98.3%; viability, T/C [17]: 109%; viability, T/C [18]: 80%; viability, T/C [21]: 110%; viability, T/C [22]: 99.7%; viability, T/C [23]: 102%; viability, T/C [24]: 88.7%; viability, T/C [27]: 79.4%; viability, T/C [28]: 86%; viability, T/C [29]: 87.1%; viability, T/C [30]: 91.8%
COc1cc(Nc2ncc3c(n2)-c2ccc(Cl)cc2C(c2c(F)cccc2OC)=NC3)ccc1C(=O)O + CC(CO)NC(=O)c1cc(-c2ccc(Cl)cc2)nn(-c2cnn(C)c2)c1=O	> 10 µM	> 10 µM	> 10 µM	> 10 µM	> 10 µM	99.8%	92.3%	104%	99.1%	93.3%	59.6%	94.6%	96%	100%	102%	102%	95.5%	91.6%	84.9%	84%	viability, T/C [10]: 93.4%; viability, T/C [11]: 84.4%; viability, T/C [12]: 51.8%; viability, T/C [15]: 114%; viability, T/C [16]: 99%; viability, T/C [17]: 85.3%; viability, T/C [18]: 68.6%; viability, T/C [21]: 101%; viability, T/C [22]: 102%; viability, T/C [23]: 84.7%; viability, T/C [24]: 67.3%; viability, T/C [27]: 93.6%; viability, T/C [28]: 97.8%; viability, T/C [29]: 83.5%; viability, T/C [30]: 72.3%
Cn1ncnc1C1c2n[nH]c(=O)c3cc(F)cc(c23)NC1c1ccc(F)cc1 (stereo not given) + CC(CO)NC(=O)c1cc(-c2ccc(Cl)cc2)nn(-c2cnn(C)c2)c1=O	> 0.1 µM	> 0.1 µM	> 0.1 µM	> 0.1 µM	> 0.1 µM	117%	120%	–	–	–	–	118%	108%	–	117%	109%	118%	118%	109%	118%	viability, T/C (second compound 0.1 µM, first compound 0.000316 µM): 111%; viability, T/C (second compound 0.1 µM, first compound 0.001 µM): 118%; viability, T/C (second compound 0.1 µM, first compound 0.00316 µM): 117%; viability, T/C (second compound 0.1 µM, first compound 0.01 µM): 109%; viability, T/C (second compound 0.316 µM, first compound 0.000316 µM): 110%; viability, T/C (second compound 0.316 µM, first compound 0.001 µM): 115%; viability, T/C (second compound 0.316 µM, first compound 0.00316 µM): 125%; viability, T/C (second compound 0.316 µM, first compound 0.01 µM): 118%; viability, T/C (second compound 1 µM, first compound 0.000316 µM): 112%; viability, T/C (second compound 1 µM, first compound 0.001 µM): 131%; viability, T/C (second compound 1 µM, first compound 0.00316 µM): 127%; viability, T/C (second compound 1 µM, first compound 0.01 µM): 109%; viability, T/C (second compound 3.16 µM, first compound 0.000316 µM): 108%; viability, T/C (second compound 3.16 µM, first compound 0.001 µM): 127%; viability, T/C (second compound 3.16 µM, first compound 0.00316 µM): 140%; viability, T/C (second compound 3.16 µM, first compound 0.01 µM): 114%; viability, T/C (second compound 10 µM, first compound 0.000316 µM): 95.1%; viability, T/C (second compound 10 µM, first compound 0.001 µM): 110%; viability, T/C (second compound 10 µM, first compound 0.00316 µM): 104%; viability, T/C (second compound 10 µM, first compound 0.01 µM): 95.6%
NS(=O)(=O)OCC1CC(n2ccc3c(NC4CCc5ccccc54)ncnc32)CC1O (stereo not given) + CC(CO)NC(=O)c1cc(-c2ccc(Cl)cc2)nn(-c2cnn(C)c2)c1=O	0.914 µM	0.995 µM	1.24 µM	2.01 µM	2.32 µM	104%	95.3%	69.9%	47.6%	41.4%	33%	114%	81%	75%	109%	90.6%	119%	91.3%	95.1%	96.6%	viability, T/C [10]: 50%; viability, T/C [11]: 30.1%; viability, T/C [12]: 29.4%; viability, T/C [15]: 77.9%; viability, T/C [16]: 52.7%; viability, T/C [17]: 34.7%; viability, T/C [18]: 27.8%; viability, T/C [21]: 90.2%; viability, T/C [22]: 55.9%; viability, T/C [23]: 41.6%; viability, T/C [24]: 34.8%; viability, T/C [27]: 88.9%; viability, T/C [28]: 65.2%; viability, T/C [29]: 44.1%; viability, T/C [30]: 40.8%
